Assays:
Format in all cases: in vivo, New Zealand white rabbits
[1] = tested on: New Zealand rabbits with normal intraocular pressure; test: Eye irritation response detection with hand-held slit lamp, 14 days eye drops; conditions: 4 mg/mL; 14 consecutive days; 50 μl/eye/day
Experimental: (§1) 42 male New Zealand white rabbits were randomly grouped into 7 groups according to body weights, 6 rabbits/group. Among the animals in Groups 1-7, the left eye was administrated dropwise with normal saline, and the right eye was administrated dropwise with a solvent/control/test article in an administration volume of 50 μL/eye respectively, once a day for 14 consecutive days, and the day of first administration was recorded as Day 1. The intraocular pressures of the animals were measured before administration on Day 1, as well as at 1 h, 2 h, 4 h, 6 h, 8 h and 10 h after administration on Day 1 (Table 10).
Animals were subjected to eye irritation response detection and fluorescein sodium detection (scored according to scoring criteria) in both eyes with a hand-held slit lamp before the start of test (Day −2/Day −1), before daily administration (Day 1 to Day 14), and at 1 h, 2 h, 4 h, 24 h, 48 h, and 72 h after the last administration (Day 14).
Animals were subjected to eye irritation response detection in both eyes with a handheld slit lamp on Day −2 to Day −1 before the start of test, before first administration every day (Day 1 to Day 14), and at 1 h, 2 h, 4 h, 24 h, 48 h, and 72 h after the last administration. The scoring criteria were as follows: […]

[2] = tested on: New Zealand rabbits with normal intraocular pressure; test: Intraocular pressure reduction, normal intraocular pressure, Day 1 (Operation II); conditions: 4 mg/mL in right eye, Day 1; for Change in intraocular pressure: vs negative controls
Text: An intraocular pressure reduction effect and potential ocular toxicity of the compound of formula (I) were inspected with rabbits with normal intraocular pressure by repeated administration of eye drops for 14 days.
Male New Zealand white rabbits, aged 97 to 127 days, weighted 2.6-3.5 kg, purchased from Pizhou Oriental Breeding Co., Ltd.
as §1

[3] = tested on: New Zealand rabbits suffered with acute intraocular hypertension; test: Intraocular pressure reduction test in acute intraocular hypertension model; conditions: for Intraocular pressure in left eye: 4 mg/mL group, left eye (solvent only); for Intraocular pressure in right eye: 4 mg/mL, 50 μL, right eye (modelled, dosed)
Text: Acute intraocular hypertension was induced for rabbits by injection of a viscoelastic agent into the anterior chamber, and the effects of ocular pressure reduction of the compound of formula (I) were inspected by administration of eye drops at different concentrations.
Male New Zealand white rabbits, aged 97 to 127 days, weighted 2.5 to 3.4 kg, purchased from Pizhou Oriental Breeding Co., Ltd.
50 male New Zealand white rabbits were randomly divided into 5 groups according to body weight, 10 rabbits/group. The anterior chambers of the right eyes of animals in Groups 1 to 5 were injected with medical sodium hyaluronate gel in a single dose, 100 μL/eye, to induce ocular hypertension in the animals. In 5 to 15 min after molding, the right eye was administrated dropwise with the solvent, K-115, and the test article (compounds of formula (I) of different concentrations), and the left eye was administrated dropwise with the solvent, 50 μL/eye; and the intraocular pressures of the animals in both eyes were measured before administration, as well as at 2, 4, 6, 8, and 10 h after administration, respectively.

C[C@H]1CNCCCN1S(=O)(=O)c1cccc2cncc(F)c12 [K-115, reference compound]
Eye irritation (conclusion) [1]: no irritation | Average intraocular pressure in both eyes ([2]; 1 h after administration): 5.50 mmHg | Change in intraocular pressure ([2]; 1 h after administration): −3.39 mmHg | Average intraocular pressure in both eyes ([2]; 2 h after administration): 7.06 mmHg | Change in intraocular pressure ([2]; 2 h after administration): −2.50 mmHg | Average intraocular pressure in both eyes ([2]; 4 h after administration): 9.00 mmHg | Change in intraocular pressure ([2]; 4 h after administration): −0.89 mmHg | Average intraocular pressure in both eyes ([2]; 6 h after administration): 9.17 mmHg | Change in intraocular pressure ([2]; 6 h after administration): −1.61 mmHg | Average intraocular pressure in both eyes ([2]; 8 h after administration): 10.61 mmHg | Change in intraocular pressure ([2]; 8 h after administration): 0.23 mmHg | Average intraocular pressure in both eyes ([2]; 10 h after administration): 12.33 mmHg | Change in intraocular pressure ([2]; 10 h after administration): 0.17 mmHg | Average intraocular pressure in both eyes ([2]; before administration): 10.17 mmHg | Change in intraocular pressure ([2]; before administration): 0.83 mmHg | Intraocular pressure in left eye ([3]; 2 h after administration): 6.50 mmHg | Intraocular pressure in left eye ([3]; 4 h after administration): 8.54 mmHg | Intraocular pressure in left eye ([3]; 6 h after administration): 11.40 mmHg | Intraocular pressure in left eye ([3]; 8 h after administration): 13.20 mmHg | Intraocular pressure in left eye ([3]; 10 h after administration): 13.37 mmHg | Intraocular pressure in left eye ([3]; before administration): 11.80 mmHg | Intraocular pressure in right eye ([3]; 2 h after administration): 8.20 mmHg | Intraocular pressure in right eye ([3]; 4 h after administration): 11.27 mmHg | Intraocular pressure in right eye ([3]; 6 h after administration): 15.07 mmHg | Intraocular pressure in right eye ([3]; 8 h after administration): 15.57 mmHg | Intraocular pressure in right eye ([3]; 10 h after administration): 16.47 mmHg | Intraocular pressure in right eye ([3]; before administration): 11.77 mmHg

Reference: patent publication US12624017B2, “Salt form of isoquinolinone type compound as rock inhibitor and preparation method therefor” (GUANGZHOU OCUSUN OPHTHALMIC BIOTECHNOLOGY CO., LTD., priority 2020, dated 2026)
